Test results: the NIST ThermoML archive (doi:10.1021/je400486p)

Experiment: xn = mol fraction of the nth substance listed
Conditions: 101.3 kPa, Liquid; for viscosity: Concentric cylinders viscometry; for mass density: Vibrating tube method

COCCOCCOCCOCCOC [2,5,8,11,14-pentaoxapentadecane] + CCC(C)O
Conditions | mass density [kg/m3] | viscosity [mPa·s]
288.15 K, x2 = 0 | 1015.63 | 4.341
288.15 K, x2 = 0.1007 | 1006.23 | 4.092
288.15 K, x2 = 0.2003 | 995.702 | 3.792
288.15 K, x2 = 0.3015 | 983.46 | 3.531
288.15 K, x2 = 0.3991 | 969.921 | 3.342
288.15 K, x2 = 0.5011 | 953.53 | 3.157
288.15 K, x2 = 0.6024 | 934.399 | 2.972
288.15 K, x2 = 0.6997 | 912.674 | 2.853
288.15 K, x2 = 0.7998 | 885.897 | 2.874
288.15 K, x2 = 0.9004 | 852.63 | 3.166
293.15 K, x2 = 0 | 1011 | 3.834
293.15 K, x2 = 0.1007 | 1001.61 | 3.582
293.15 K, x2 = 0.2003 | 991.093 | 3.32
293.15 K, x2 = 0.3015 | 978.877 | 3.099
293.15 K, x2 = 0.3991 | 965.365 | 2.941
293.15 K, x2 = 0.5011 | 949.011 | 2.776
293.15 K, x2 = 0.6024 | 929.939 | 2.61
293.15 K, x2 = 0.6997 | 908.32 | 2.498
293.15 K, x2 = 0.7998 | 881.561 | 2.497
293.15 K, x2 = 0.9004 | 848.418 | 2.705
298.15 K, x2 = 0 | 1006.36 | 3.38
298.15 K, x2 = 0.1007 | 996.991 | 3.158
298.15 K, x2 = 0.2003 | 986.495 | 2.937
298.15 K, x2 = 0.3015 | 974.305 | 2.75
298.15 K, x2 = 0.3991 | 960.825 | 2.603
298.15 K, x2 = 0.5011 | 944.498 | 2.461
298.15 K, x2 = 0.6024 | 925.479 | 2.316
298.15 K, x2 = 0.6997 | 903.877 | 2.21
298.15 K, x2 = 0.7998 | 877.228 | 2.187
298.15 K, x2 = 0.9004 | 844.144 | 2.337
303.15 K, x2 = 0 | 1001.73 | 3.004
303.15 K, x2 = 0.1007 | 992.377 | 2.805
303.15 K, x2 = 0.2003 | 981.894 | 2.627
303.15 K, x2 = 0.3015 | 969.723 | 2.472
303.15 K, x2 = 0.3991 | 956.258 | 2.344
303.15 K, x2 = 0.5011 | 939.966 | 2.205
303.15 K, x2 = 0.6024 | 920.978 | 2.068
303.15 K, x2 = 0.6997 | 899.43 | 1.967
303.15 K, x2 = 0.7998 | 872.81 | 1.933
303.15 K, x2 = 0.9004 | 839.81 | 2.037
308.15 K, x2 = 0 | 997.104 | 2.691
308.15 K, x2 = 0.1007 | 987.755 | 2.513
308.15 K, x2 = 0.2003 | 977.28 | 2.363
308.15 K, x2 = 0.3015 | 965.119 | 2.229
308.15 K, x2 = 0.3991 | 951.674 | 2.111
308.15 K, x2 = 0.5011 | 935.407 | 1.984
308.15 K, x2 = 0.6024 | 916.445 | 1.859
308.15 K, x2 = 0.6997 | 894.917 | 1.762
308.15 K, x2 = 0.7998 | 868.357 | 1.72
308.15 K, x2 = 0.9004 | 835.418 | 1.786
313.15 K, x2 = 0 | 992.481 | 2.426
313.15 K, x2 = 0.1007 | 983.135 | 2.269
313.15 K, x2 = 0.2003 | 972.669 | 2.139
313.15 K, x2 = 0.3015 | 960.509 | 2.022
313.15 K, x2 = 0.3991 | 947.072 | 1.914
313.15 K, x2 = 0.5011 | 930.813 | 1.796
313.15 K, x2 = 0.6024 | 911.86 | 1.681
313.15 K, x2 = 0.6997 | 890.367 | 1.59
313.15 K, x2 = 0.7998 | 863.83 | 1.54
313.15 K, x2 = 0.9004 | 830.95 | 1.575
318.15 K, x2 = 0 | 987.859 | 2.199
318.15 K, x2 = 0.1007 | 978.511 | 2.069
318.15 K, x2 = 0.2003 | 968.041 | 1.949
318.15 K, x2 = 0.3015 | 955.883 | 1.836
318.15 K, x2 = 0.3991 | 942.446 | 1.73
318.15 K, x2 = 0.5011 | 926.193 | 1.629
318.15 K, x2 = 0.6024 | 907.25 | 1.529
318.15 K, x2 = 0.6997 | 885.759 | 1.445
318.15 K, x2 = 0.7998 | 859.246 | 1.385
318.15 K, x2 = 0.9004 | 826.396 | 1.397
323.15 K, x2 = 0 | 983.234 | 2.006
323.15 K, x2 = 0.1007 | 973.877 | 1.892
323.15 K, x2 = 0.2003 | 963.397 | 1.787
323.15 K, x2 = 0.3015 | 951.237 | 1.687
323.15 K, x2 = 0.3991 | 937.792 | 1.591
323.15 K, x2 = 0.5011 | 921.533 | 1.495
323.15 K, x2 = 0.6024 | 902.591 | 1.402
323.15 K, x2 = 0.6997 | 881.097 | 1.32
323.15 K, x2 = 0.7998 | 854.581 | 1.259
323.15 K, x2 = 0.9004 | 821.735 | 1.243
